Among the data in ChEMBL document CHEMBL2074341, “Biliary excretion of flavopiridol and its glucuronides in the isolated perfused rat liver: role of multidrug resistance protein 2 (Mrp2)” (Life Sci, 2003) are Activity values, retold here.

For this series, the target named is ATP-binding cassette sub-family C member 2 (Rattus norvegicus, UniProt Q63120). Nature of the series: TP_TRANSPORTER: transport activity, in vitro, Wistar vs TR-. The format is functional.

Molecules are shown by their SMILES.

Sequence of ATP-binding cassette sub-family C member 2 (Q63120 whole entry): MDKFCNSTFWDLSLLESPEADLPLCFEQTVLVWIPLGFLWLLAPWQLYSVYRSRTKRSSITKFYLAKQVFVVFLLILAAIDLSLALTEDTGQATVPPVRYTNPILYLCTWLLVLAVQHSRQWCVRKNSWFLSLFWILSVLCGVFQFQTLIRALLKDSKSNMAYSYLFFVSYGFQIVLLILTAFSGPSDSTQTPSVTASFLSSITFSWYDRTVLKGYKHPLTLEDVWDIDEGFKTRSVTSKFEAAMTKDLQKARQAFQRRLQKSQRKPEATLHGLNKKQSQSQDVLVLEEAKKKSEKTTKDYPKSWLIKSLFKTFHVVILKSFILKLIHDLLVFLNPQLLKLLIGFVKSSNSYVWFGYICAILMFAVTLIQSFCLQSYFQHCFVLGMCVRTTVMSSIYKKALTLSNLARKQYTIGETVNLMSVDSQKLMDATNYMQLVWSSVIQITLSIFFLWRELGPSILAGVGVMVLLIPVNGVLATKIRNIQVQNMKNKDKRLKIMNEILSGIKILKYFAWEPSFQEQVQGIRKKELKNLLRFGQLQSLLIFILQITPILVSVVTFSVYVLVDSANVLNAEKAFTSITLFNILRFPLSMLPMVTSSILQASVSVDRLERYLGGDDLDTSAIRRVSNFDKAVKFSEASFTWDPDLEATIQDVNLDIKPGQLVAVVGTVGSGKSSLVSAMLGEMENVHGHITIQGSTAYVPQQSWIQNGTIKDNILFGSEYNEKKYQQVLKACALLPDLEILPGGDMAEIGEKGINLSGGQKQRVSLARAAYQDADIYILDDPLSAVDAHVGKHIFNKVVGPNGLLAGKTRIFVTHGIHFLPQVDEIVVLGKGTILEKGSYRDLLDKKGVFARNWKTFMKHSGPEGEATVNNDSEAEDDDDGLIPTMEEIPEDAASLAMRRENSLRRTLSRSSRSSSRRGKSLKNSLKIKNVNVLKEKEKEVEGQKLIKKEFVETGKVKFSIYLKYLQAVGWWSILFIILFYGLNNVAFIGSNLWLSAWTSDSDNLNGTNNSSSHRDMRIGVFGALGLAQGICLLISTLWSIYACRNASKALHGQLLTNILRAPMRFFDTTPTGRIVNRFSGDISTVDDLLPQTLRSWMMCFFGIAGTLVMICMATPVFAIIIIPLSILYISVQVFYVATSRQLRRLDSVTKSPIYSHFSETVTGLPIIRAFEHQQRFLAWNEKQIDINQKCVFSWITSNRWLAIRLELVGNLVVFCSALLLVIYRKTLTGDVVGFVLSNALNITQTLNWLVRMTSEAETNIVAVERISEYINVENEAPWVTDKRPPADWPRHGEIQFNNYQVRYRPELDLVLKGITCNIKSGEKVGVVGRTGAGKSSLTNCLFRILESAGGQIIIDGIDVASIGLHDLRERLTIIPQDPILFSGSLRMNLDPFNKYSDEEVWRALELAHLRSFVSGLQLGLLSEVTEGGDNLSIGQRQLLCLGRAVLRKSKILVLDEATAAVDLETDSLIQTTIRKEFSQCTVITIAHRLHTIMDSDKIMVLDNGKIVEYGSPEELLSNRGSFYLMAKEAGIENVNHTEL

For `CN1CC[C@H](c2c(O[C@@H]3O[C@H](C(=O)O)[C@@H](O)[C@H](O)[C@H]3O)cc(O)c3c(=O)cc(-c4ccccc4Cl)oc23)[C@H](O)C1`, the Activity entry was “substrate []”.

For the compound `CN1CC[C@H](c2c(O)cc(O[C@@H]3O[C@H](C(=O)O)[C@@H](O)[C@H](O)[C@H]3O)c3c(=O)cc(-c4ccccc4Cl)oc23)[C@H](O)C1`, the Activity entry was “substrate []”.
